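A five-concentration, 48-hour dose response in 96-well plates underlies each endpoint, interpolated linearly between surrounding concentrations. TGI denotes the concentration required for complete inhibition of growth.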
What was measured:
Assay in all cases: NCI anticancer screen, dose series, 48 h
[1] = tested on: 786-0 renal
[2] = tested on: A498 renal
[3] = tested on: A549 NSCLC
[4] = tested on: ACHN renal
[5] = tested on: CAKI-1 renal
[6] = tested on: CCRF-CEM leukemia
[7] = tested on: COLO 205 colon
[8] = tested on: DLD-1 colon
[9] = tested on: DMS 114 small cell lung
[10] = tested on: DMS 273 small cell lung
[11] = tested on: EKVX NSCLC
[12] = tested on: HCC-2998 colon
[13] = tested on: HCT-116 colon
[14] = tested on: HCT-15 colon
[15] = tested on: HL-60(TB) leukemia
[16] = tested on: HOP-18 NSCLC
[17] = tested on: HOP-62 NSCLC
[18] = tested on: HOP-92 NSCLC
[19] = tested on: HT29 colon
[20] = tested on: IGROV1 ovarian
[21] = tested on: K-562 leukemia
[22] = tested on: KM12 colon
[23] = tested on: KM20L2 colon
[24] = tested on: LOX IMVI melanoma
[25] = tested on: LXFL 529 NSCLC
[26] = tested on: M14 melanoma
[27] = tested on: M19-MEL melanoma
[28] = tested on: MALME-3M melanoma
[29] = tested on: MOLT-4 leukemia
[30] = tested on: NCI-H226 lung
[31] = tested on: NCI-H23 lung
[32] = tested on: NCI-H460 lung
[33] = tested on: NCI-H522 lung
[34] = tested on: OVCAR-3 ovarian
[35] = tested on: OVCAR-4 ovarian
[36] = tested on: OVCAR-5 ovarian
[37] = tested on: OVCAR-8 ovarian
[38] = tested on: RPMI-8226 leukemia
[39] = tested on: RXF 393 renal
[40] = tested on: RXF-631 renal
[41] = tested on: SF-268 CNS
[42] = tested on: SF-295 CNS
[43] = tested on: SF-539 CNS
[44] = tested on: SK-MEL-2 melanoma
[45] = tested on: SK-MEL-28 melanoma
[46] = tested on: SK-MEL-5 melanoma
[47] = tested on: SK-OV-3 ovarian
[48] = tested on: SN12C renal
[49] = tested on: SNB-19 CNS
[50] = tested on: SNB-75 CNS
[51] = tested on: SNB-78 CNS
[52] = tested on: SR leukemia
[53] = tested on: SW-620 colon
[54] = tested on: TK-10 renal
[55] = tested on: UACC-257 melanoma
[56] = tested on: UACC-62 melanoma
[57] = tested on: UO-31 renal
[58] = tested on: XF 498 CNS

With `O=C(/C=C/c1ccccc1F)c1ccc(Cl)c(Cl)c1` the TGI [1] was 31.4 µM, the TGI [2] was > 59.3 µM and the TGI [3] was > 100 µM. For the same molecule, the TGI [4] was > 100 µM, the TGI [5] was > 80.2 µM and the TGI [6] was 67.8 µM. The TGI [7] was > 100 µM, the TGI [8] was > 62.9 µM and the TGI [9] was 55.5 µM. The TGI [10] was > 100 µM, the TGI [11] was > 100 µM and the TGI [12] was > 71 µM. For the same molecule, the TGI [13] was 32.1 µM, the TGI [14] was > 87 µM and the TGI [15] was 51.4 µM. For the same molecule, the TGI [16] was > 100 µM, the TGI [17] was > 100 µM and the TGI [18] was > 100 µM. For the same molecule, the TGI [19] was > 75.2 µM, the TGI [20] was > 72.6 µM and the TGI [21] was 48.4 µM. For the same molecule, the TGI [22] was 45 µM, the TGI [23] was > 100 µM and the TGI [24] was 23.6 µM. For the same molecule, the TGI [25] was 35.6 µM, the TGI [26] was > 100 µM and the TGI [27] was 58.1 µM. The TGI [28] was > 100 µM, the TGI [29] was 77 µM and the TGI [30] was > 100 µM. The TGI [31] was 24 µM, the TGI [32] was > 100 µM and the TGI [33] was 61.2 µM. For the same molecule, the TGI [34] was > 71.6 µM, the TGI [35] was > 100 µM and the TGI [36] was > 100 µM. For the same molecule, the TGI [37] was > 100 µM, the TGI [38] was > 75.6 µM and the TGI [39] was 62.4 µM. For the same molecule, the TGI [40] was > 100 µM, the TGI [41] was > 100 µM and the TGI [42] was > 100 µM. For the same molecule, the TGI [43] was > 100 µM, the TGI [44] was > 100 µM and the TGI [45] was > 100 µM. The TGI [46] was > 84.1 µM, the TGI [47] was > 100 µM and the TGI [48] was 98.5 µM. For the same molecule, the TGI [49] was > 100 µM, the TGI [50] was 98.5 µM and the TGI [51] was > 100 µM. For the same molecule, the TGI [52] was > 100 µM, the TGI [53] was > 66.3 µM and the TGI [54] was > 100 µM. For the same molecule, the TGI [55] was > 100 µM, the TGI [56] was > 100 µM and the TGI [57] was > 100 µM. It also gave a TGI [58] of 77 µM.
